Experimental data taken from US8569259B2, “Adenosine analogs and their use” (Microdose Therapeutx, Inc., priority 2006, dated 2013).
Read-outs that look alike come from different tables or passages of the source.

Key:
male Balb/C mice [1] = assay: Gastric retention and small intestine transit, 30 min after Tc-sulfur colloid meal; format: in vivo; conditions: 30 min after meal, tegaserod 0.1 mg/kg ip, lubiprostone 0.1 mg/kg oral, compound C 50 mg/kg oral; for geometric center (GC) of the small intestine: 1-way ANOVA or Student's t-test, FIG. 3; for stomach retention, percentage of total radioactivity left in the stomach: FIG. 5
Method: Male Balb/C mice were fasted overnight with free access to water. Water was then removed for 30 minutes. Each mouse was subsequently gavaged a liquid meal of 0.5% methylcellulose (weight-to-volume w/v) and 10% corn oil (volume-to-volume v/v) in water containing 5-10 μCi of an non-absorbable Tc-sulfur colloid radioactive marker as well as compound C at doses between 2 and 50 mg/kg (10 mL/kg), or lubiprostone at 100 μg/kg. A group was dosed with tegaserod (100 μg/kg) injected ip just prior to receiving vehicle by oral gavage. Control animals received vehicle only. Animals were euthanized 30 minutes after dosing and their GI tract was excised from the stomach down. The stomach was counted alone. The small intestine was extended and cut into 10 equally sized pieces, labeled 1 to 10 from stomach to caecum. Each piece of the small intestine, and the stomach, were counted for radioactivity. The geometric center (GC) of the small intestine was calculated according to GC=(Σ(i×Ci))/(ΣCi), where i is the label of the segment (from 1 to 10) and Ci is the number of counts. GC is a number between 1 and 10. The closer GC is to 10, the faster the small intestinal transit. Gastric retention was calculated as percent of total dose counted. GC's and gastric retentions were compared between dose and vehicle groups using a Student's t-test. A P-value of less than 0.05 was considered statistically significant, as depicted in FIGS. 3-5.

male Balb/C mice [2] = assay: Large intestine transit, 2.5 hr after Tc-sulfur colloid meal; format: in vivo; conditions: 2.5 hr after meal; for gastric retention (percentage of total radioactivity left in stomach): compound C up to 50 mg/kg oral, lubiprostone 0.1 mg/kg oral, FIG. 6
Method: Male Balb/C mice were fasted overnight with free access to water. Water was then removed for 30 min. Each mouse was subsequently gavaged a liquid meal of 0.5% methylcellulose (weight-to-volume w/v) and 10% corn oil (volume-to-volume v/v) in water containing 5-10 μCi of an non-absorbable Tc-sulfur colloid radioactive marker containing the compound C at doses of 5, 10 and 50 mg/kg (10 mL/kg), or lubiprostone at 100 μg/kg. A group was dosed with tegaserod (100 μg/kg) injected ip just prior to receiving vehicle by oral gavage. Control animals received vehicle only. Animals were kept for 30 minutes in empty cages then given access to food and water at libitum. They were euthanized 2.5 hours after dosing and their GI tract was excised from the stomach down. The stomach and small intestine were counted alone. The large intestine was extended and cut into 3 equally sized pieces, labeled 1 to 3 from caecum to rectum. Each section was counted individually. Feces, labeled 4, were collected, weighed, and counted. The geometric center (GC) of the large intestine/feces portion of the GI tract was calculated according to GC=(Σ(i×Ci))/(ΣCi), where i is the label of the segment (from 1 to 4) and Ci is the number of counts. GC is a number between 1 and 4. The closer GC is to 4, the faster the intestinal transit. Between 7 and 12 mice were used for each dose group. Gastric retention was calculated as percent of total dose counted. Gastric retentions between compound-dosed and vehicle-dosed animals were compared using a one-way ANOVA test and a Dunnett post-test. GC's and feces weights were compared between compound- and vehicle-dosed animals using a similar statistical methodology. In all cases, a P-value of less than 0.05 was considered statistically significant.

P2Y2 receptor = target: T1, P2Y2 receptor (Homo sapiens, UniProt P41231); assay: IP1 accumulation assay (kit IP-one HTRF); format: cell-based
T1 construct: host or cells: cells not identified for the IP1 assay
Method: The compounds described herein may be tested for their ability to elicit P2Y2 receptor activity using in vitro IP1 accumulation, intracellular calcium mobilization, mucus production and ciliary beat frequency assays, ex vivo Short Current Circuit and fluid transport assays for P2Y2 and other P2Y receptor activity assays, as described below.
Cells in midlog phase are collected with PBS-EDTA, washed and resuspended in medium without antibiotics at a concentration of 2×10^5 cells/ml. Cells (200 μL or 40.000 cells) are then distributed into a 96 well plate (Cellstar, Greiner, 655083). The plate is incubated overnight at 37° C. in a cell culture incubator. The next morning, the medium is removed and replaced by 50 μL of agonist diluted in the stimulation buffer provided with the kit IP-one (CisBio, 621P1PEB). The plate is incubated for 1 h at 37° C. in a cell culture incubator. 25 μL of the antibody diluted in lysis buffer is then added to each well. 25 μL of the IP1-d2 diluted in lysis buffer is added to each well and the plate is incubated for 1 h. at room temperature. The plate is then read on a Rubystar and dose-response curves are generated by plotting the ligand concentrations versus the DeltaF ratio.
EC50 values for certain compounds were obtained through an IP1 accumulation assay (kit IP-one HTRF), as described above.

male Balb/C mice [3] = assay: Total gastrointestinal transit, carmine red dye meal, time to first red pellet and feces weight; format: in vivo; conditions: oral gavage 5 and 50 mg/kg
Method: Briefly, mice were administered a meal containing a non-absorbable red dye (carmine) and were monitored for 3 hours. Feces were collected and time of expulsion was recorded. Feces were weighed fresh and again after overnight drying. Time to first red-colored feces was used as a measure of total GI transit time. Total weight of wet and dry feces was used as a measure of fluid secretion.
Male Balb/C mice were fasted overnight with free access to water. They were then given access to food and water for 30 minutes. They were finally moved to empty plastic cages with no access to food or water. After 1 hour, each mouse was fed a liquid meal of 0.5% methylcellulose (weight-to-volume w/v) in water containing 3% carmine dye (w/v) as well as doses of the test compound at 5 and 50 mg/kg (10 mL/kg) with a gavage needle. Control animals received vehicle only. Each animal was held in an individual cage for the following 3 hours. The expulsion time of each feces was recorded to the nearest 5 seconds. Each feces was placed in a tared vial and the vial was capped. Fresh feces were weighed and the vials were kept uncapped overnight at 37° C. The feces were then weighed again. Average times to first red-colored feces for vehicle- and compound-dosed animals were compared using a Student's t-test (two-sided, unequal variance). A P-value of 0.05 or less was considered statistically significant. […]

[4] = compound falls in class +++, read-out: EC50, class +++ (<500 nM)
[5] = X = compound falls in class +, read-out: EC50, class + (>1000 nM)

T1 sequence (P41231 whole entry): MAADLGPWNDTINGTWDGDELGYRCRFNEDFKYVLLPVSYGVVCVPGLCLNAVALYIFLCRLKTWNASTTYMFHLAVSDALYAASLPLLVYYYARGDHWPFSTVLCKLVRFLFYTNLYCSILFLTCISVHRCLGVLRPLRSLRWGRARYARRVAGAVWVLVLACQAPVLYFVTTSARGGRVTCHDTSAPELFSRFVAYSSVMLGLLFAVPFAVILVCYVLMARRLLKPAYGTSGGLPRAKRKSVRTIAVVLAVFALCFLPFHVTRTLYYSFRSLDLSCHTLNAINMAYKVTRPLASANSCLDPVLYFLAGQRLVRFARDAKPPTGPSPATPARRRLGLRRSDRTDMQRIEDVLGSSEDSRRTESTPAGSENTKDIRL

In the case of COc1ccc(O[C@@H]2O[C@H](COP(=O)(O)OP(=O)(O)OP(=O)(O)OP(=O)(O)OC[C@H]3O[C@@H](n4cnc5c(=N)n(C)cnc54)[C@H](O)[C@@H]3O)[C@@H](O)[C@H]2O)cc1 [Compound C], the “geometric center (GC) of the small intestine” value (male Balb/C mice [1]) is reported as “No statistical significance was observed”, the “stomach retention, percentage of total radioactivity left in the stomach” value (“stomach retention, percentage” below) (male Balb/C mice [1]) is reported as “No statistical significance was found” and the “gastric retention (percentage of total radioactivity left in stomach)” value (male Balb/C mice [2]) is reported as “virtually no effect on gastric retention”. The “geometric center (GC) of the large intestine and feces” value (male Balb/C mice [2]; oral 5, 10 and 50 mg/kg, FIG. 7) was “calculated large intestine geometric center increases with increasing dose”, the “percentage of total radioactivity found in the feces” value (male Balb/C mice [2]; oral 5, 10 and 50 mg/kg, FIG. 8) was “dose-dependent increase of % total radioactivity starting at 5 mg/kg dose at a percentage equivalent to that obtained with lubiprostone and tegaserod” and the “dose with statistically significant effect on large intestine transit” value (male Balb/C mice [2]; oral, P<0.05 vs vehicle) was at least 10 mg/kg. The “geometric center (GC) of the large intestine, effect compared with reference drugs” value (male Balb/C mice [2]; compound C 5 mg/kg oral) was “equivalent to that obtained with doses of lubiprostone (0.1 mg/kg) and tegaserod (0.1 mg/kg)”, the EC50 (P2Y2 receptor; [4]) was under 500 nM and the “total weight of feces (wet, dry) and water content produced during 3 hours” value (male Balb/C mice [3]; 3 hrs after dosing, FIG. 2) was “dose-dependent increase in wet, and dry feces, as well as in water content”. The “time to first red-colored feces (total GI transit time)” value (male Balb/C mice [3]; vs vehicle, FIG. 1) was “time to first red pellet decreases with increasing dose”.
For CNc1c2ncn([C@@H]3O[C@H](COP(=O)(O)OP(=O)(O)OP(=O)(O)OP(=O)(O)OC[C@H]4O[C@@H](Oc5ccc(OC)cc5)[C@H](O)[C@@H]4O)[C@@H](O)[C@H]3O)c2nc[n+]1C [Compound D], the EC50 (P2Y2 receptor; [4]) was under 500 nM.
COc1ccc(O[C@@H]2O[C@H](COP(=O)(O)OP(=O)(O)OP(=O)(O)OC[C@H]3O[C@@H](n4cnc5c(=N)n(C)cnc54)[C@H](O)[C@@H]3O)[C@@H](O)[C@H]2O)cc1 [Compound E] showed an EC50 (P2Y2 receptor; [5]) of over 1000 nM.
COc1ccc(N(C)C[C@@H]2O[C@H](COP(=O)(O)OP(=O)(O)OP(=O)(O)O)[C@@H](O)[C@H]2O)cc1 [Compound J, ((2R,3S,4R)-3,4-dihydroxy-5-(((4-methoxyphenyl)(methyl)amino)methyl)tetrahydrofuran-2-yl)methyltriphosphoric acid] was tested, and the EC50 (P2Y2 receptor; [5]) was over 1000 nM.
O=P(O)(O)OP(=O)(O)OP(=O)(O)OC[C@H]1O[C@@H](CNc2cccnc2)[C@H](O)[C@@H]1O [Compound K, ((2R,3S,4R,5S)-3,4-Dihydroxy-5-((pyridin-3-ylamino)methyl)tetrahydrofuran-2-yl)methyltriphosphoric acid] was tested, and the EC50 (P2Y2 receptor; [5]) was over 1000 nM.
O=P(O)(O)OP(=O)(O)OP(=O)(O)OC[C@H]1O[C@@H](Oc2cccnc2)[C@H](O)[C@@H]1O [Compound M, 3-Pyridyl-β-D-ribofuranosid-5′-triphosphate] gave an EC50 (P2Y2 receptor; [5]) of over 1000 nM.
Molecule COc1ccc(O[C@@H]2O[C@H](COP(=O)(O)OP(=O)(O)OP(=O)(O)OP(=O)(O)OC[C@H]3O[C@@H](c4c[nH]c(=O)[nH]c4=O)[C@H](O)[C@@H]3O)[C@@H](O)[C@H]2O)cc1 [Compound N] has an EC50 (P2Y2 receptor; X in this column = compound falls in class ++, read-out: EC50, class ++ (500-1000 nM)) of 500 to 1000 nM.
Work on Cn1cnc2c(ncn2[C@@H]2O[C@H](COP(=O)(O)OP(=O)(O)OP(=O)(O)O)[C@@H](O)[C@H]2O)c1=N [Compound P, 1-Methyl-Adenosine-5′-triphosphate] yielded an EC50 (P2Y2 receptor; [4]) of under 500 nM.
CCCCC(F)(F)[C@@]1(O)CC[C@H]2[C@@H](CC(=O)[C@@H]2CCCCCCC(=O)O)O1 [lubiprostone] was tested, and the “geometric center (GC) of the small intestine” value (male Balb/C mice [1]) was “No statistical significance was observed”, the “stomach retention, percentage” value (male Balb/C mice [1]) was “No statistical significance was found” and the “gastric retention (percentage of total radioactivity left in stomach)” value (male Balb/C mice [2]) was “significant delay in gastric emptying”.
In the case of [H]/N=C(/NCCCCC)N/N=C/c1c[nH]c2ccc(OC)cc12 [tegaserod], the “geometric center (GC) of the small intestine” value (male Balb/C mice [1]) is reported as “No statistical significance was observed” and the “stomach retention, percentage” value (male Balb/C mice [1]) is reported as “statistically significance for tegaserod versus vehicle using Student's t-test”.
